Results published in ChEMBL document CHEMBL1201862, “PubChem BioAssay data set” (2004).
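Growth conditions: 96-well plates. Treatment: test compound, 48 hours, 5 concentrations. Analysis: linear interpolation between bracketing concentrations; unreached endpoints set to highest concentration. The concentration for 50% growth inhibition is given as GI50.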 Calls of active or inactive are those of the source. Rule as the data show it: active = GI50 up to about 1.1 µM and inactive = higher.

Legend:
Test in all cases: inhibition of tumour cell growth, NCI panel, 48 h
[1] = test system: OVCAR-4
[2] = test system: SK-OV-3
[3] = test system: SW-620
[4] = test system: HL-60
[5] = test system: IGROV-1
[6] = test system: SF-295
[7] = test system: NCI-H23
[8] = test system: HCT-15
[9] = test system: OVCAR-8
[10] = test system: 786-0
[11] = test system: HCT-116
[12] = test system: LOX IMVI
[13] = test system: K562
[14] = test system: CCRF-CEM
[15] = test system: NCI-H226
[16] = test system: HOP-62
[17] = test system: SNB-19
[18] = test system: SK-MEL-28
[19] = test system: CAKI-1
[20] = test system: PC-3
[21] = test system: NCI-H522
[22] = test system: KM12
[23] = test system: MDA-MB-231
[24] = test system: A498
[25] = test system: MOLT-4
[26] = test system: U-251
[27] = test system: SR
[28] = test system: HCC 2998
[29] = test system: COLO 205
[30] = test system: SN12C
[31] = test system: T47D
[32] = test system: Malme-3M
[33] = test system: OVCAR-3
[34] = test system: TK-10
[35] = test system: SK-MEL-2
[36] = test system: MDA-MB-435
[37] = test system: HOP-92
[38] = test system: SF-539
[39] = test system: MDA-N
[40] = test system: SK-MEL-5
[41] = test system: RXF 393
[42] = test system: DU-145
[43] = test system: SF-268
[44] = test system: HT-29
[45] = test system: NCI/ADR-RES
[46] = test system: OVCAR-5
[47] = test system: A549
[48] = test system: ACHN
[49] = test system: M14
[50] = test system: RPMI-8226
[51] = test system: Hs-578T
[52] = test system: UACC-257
[53] = test system: EKVX
[54] = test system: UO-31
[55] = test system: NCI-H460
[56] = test system: UACC-62
[57] = test system: SNB-75
[58] = test system: MCF7

`COC(=O)[C@@H]1CN(C(=O)CCc2ccccc2)C(=O)N1` was tested, and the GI50 [1] was > 100 µM (inactive), the GI50 [2] was > 100 µM (inactive) and the GI50 [3] was > 100 µM (inactive). The GI50 [4] was > 100 µM (inactive), the GI50 [5] was > 100 µM (inactive) and the GI50 [6] was > 100 µM (inactive). For the same compound, the GI50 [7] was > 100 µM (inactive), the GI50 [8] was > 100 µM and the GI50 [9] was > 100 µM (inactive). For the same compound, the GI50 [10] was > 100 µM (inactive), the GI50 [11] was > 100 µM (inactive) and the GI50 [12] was > 100 µM (inactive). The GI50 [13] was > 100 µM (inactive), the GI50 [14] was > 100 µM (inactive) and the GI50 [15] was > 100 µM (inactive). The GI50 [16] was > 100 µM (inactive), the GI50 [17] was > 100 µM (inactive) and the GI50 [18] was > 100 µM (inactive). The GI50 [19] was > 100 µM (inactive), the GI50 [20] was > 100 µM (inactive) and the GI50 [21] was > 100 µM (inactive). For the same compound, the GI50 [22] was > 100 µM (inactive), the GI50 [23] was > 100 µM (inactive) and the GI50 [24] was > 100 µM (inactive). For the same compound, the GI50 [25] was > 100 µM (inactive), the GI50 [26] was > 100 µM (inactive) and the GI50 [27] was > 100 µM (inactive). The GI50 [28] was > 100 µM (inactive), the GI50 [29] was > 100 µM (inactive) and the GI50 [30] was > 100 µM (inactive). The GI50 [31] was > 100 µM (inactive), the GI50 [32] was > 100 µM (inactive) and the GI50 [33] was > 100 µM (inactive). For the same compound, the GI50 [34] was > 100 µM (inactive), the GI50 [35] was > 100 µM (inactive) and the GI50 [36] was > 100 µM (inactive). For the same compound, the GI50 [37] was > 100 µM (inactive), the GI50 [38] was > 100 µM (inactive) and the GI50 [39] was > 100 µM (inactive). For the same compound, the GI50 [40] was > 100 µM (inactive), the GI50 [41] was > 100 µM (inactive) and the GI50 [42] was > 100 µM (inactive). For the same compound, the GI50 [43] was > 100 µM (inactive), the GI50 [44] was > 100 µM (inactive) and the GI50 [45] was > 100 µM (inactive). For the same compound, the GI50 [46] was > 100 µM (inactive), the GI50 [47] was > 100 µM (inactive) and the GI50 [48] was > 100 µM (inactive). For the same compound, the GI50 [49] was > 100 µM (inactive), the GI50 [50] was > 100 µM (inactive) and the GI50 [51] was > 100 µM (inactive). The GI50 [52] was > 100 µM (inactive), the GI50 [53] was > 100 µM (inactive) and the GI50 [54] was 50.2 µM (inactive). For the same compound, the GI50 [55] was 86.1 µM (inactive).

With `CCOC(=O)NN(C(=O)OCC)c1ccc(/N=N/c2ccc(OC)cc2)n1C` the GI50 [1] was 36.9 µM (inactive), the GI50 [2] was 30.7 µM (inactive) and the GI50 [56] was 99.1 µM (inactive). For the same compound, the GI50 [4] was 19.2 µM (inactive), the GI50 [5] was 29 µM (inactive) and the GI50 [6] was 37.4 µM (inactive). For the same compound, the GI50 [7] was 32.6 µM (inactive), the GI50 [8] was 12.5 µM and the GI50 [9] was 35.5 µM (inactive). The GI50 [10] was 32.2 µM (inactive), the GI50 [11] was 18.6 µM (inactive) and the GI50 [12] was 21.5 µM (inactive). The GI50 [13] was 23.1 µM (inactive), the GI50 [15] was 26.2 µM (inactive) and the GI50 [16] was 26.9 µM (inactive). The GI50 [20] was 15.3 µM (inactive), the GI50 [21] was 18 µM (inactive) and the GI50 [22] was 24 µM (inactive). For the same compound, the GI50 [23] was 19.8 µM (inactive), the GI50 [24] was 25.3 µM (inactive) and the GI50 [25] was 43.7 µM (inactive). The GI50 [26] was 29.9 µM (inactive), the GI50 [28] was 31.3 µM (inactive) and the GI50 [29] was 21.7 µM (inactive). For the same compound, the GI50 [30] was 37.1 µM (inactive), the GI50 [31] was 21 µM (inactive) and the GI50 [32] was 25.2 µM (inactive). The GI50 [33] was 18.5 µM (inactive), the GI50 [34] was 44.2 µM (inactive) and the GI50 [57] was 10.3 µM (inactive). For the same compound, the GI50 [58] was 6 µM (inactive), the GI50 [35] was 10.8 µM (inactive) and the GI50 [36] was 22.7 µM (inactive). For the same compound, the GI50 [37] was 24.8 µM (inactive), the GI50 [38] was 18.4 µM (inactive) and the GI50 [39] was 19.7 µM (inactive). The GI50 [40] was 17.5 µM (inactive), the GI50 [41] was 32.4 µM (inactive) and the GI50 [44] was 22.4 µM (inactive). For the same compound, the GI50 [45] was 25.9 µM (inactive), the GI50 [46] was 32.7 µM (inactive) and the GI50 [47] was 23 µM (inactive). The GI50 [48] was 23.6 µM (inactive), the GI50 [49] was 22.8 µM (inactive) and the GI50 [50] was 19.9 µM (inactive). For the same compound, the GI50 [51] was 65.8 µM (inactive), the GI50 [52] was 23.1 µM (inactive) and the GI50 [53] was > 100 µM (inactive). For the same compound, the GI50 [54] was 0.653 µM (active).
